Experimental data taken from PMC5004293, “Characterization of FRM-36143 as a new γ-secretase modulator for the potential treatment of familial Alzheimer’s disease” (Alzheimer's Research & Therapy, 2016).

How the values were obtained:
[1] = tested on: γ-secretase; assay: Aβ42 ELISA in mouse primary cortical neurons; format: cell-based; conditions: overnight
Protocol: Primary cultures were established from the neocortex of E17 CD1 mouse embryos (Charles River Laboratories, Wilmington, MA, USA). Following tissue dissection and trituration, the cultures were suspended in Neurobasal® medium (Invitrogen, Carlsbad, CA, USA) supplemented with 10 % horse serum (Sigma-Aldrich, St. Louis, MO, USA) and 520 μM L-glutamine. Cells were plated at 50,000 cells/well in 96-well poly-D-lysine-coated plates. Following incubation at 37 °C and 5 % CO2 for 4 h, the plating medium was exchanged with Neurobasal® medium supplemented with 2 % B-27® (Invitrogen), 520 μM of L-glutamine, and 1 % penicillin–streptomycin. […]
Aβ peptide levels were quantified by sandwich ELISA using anti-Aβ38, anti-Aβ40, anti-Aβ42, (BioLegend, Dedham, MA, USA) or anti-Aβ37 for the capture and 4G8-horseradish peroxidase (HRP; BioLegend) for detection. […]
For cell-based assays, freshly collected samples of cultured cell supernatant were added to the plates and incubated at 4 °C for about 24 h. Detection was performed using SureBlue 3,3’,5,5’-tetramethylbenzidine (TMB) peroxidase substrate (KPL, Inc., Gaithersburg, MD, USA) and the plates read on a SpectraMax M5e microplate reader (Molecular Devices, Inc., Sunnyvale, CA, USA). […] EC50 values were calculated from values reported as percentage of DMSO using nonlinear regression, based on a sigmoidal dose–response (variable slope) model.

[2] = tested on: γ-secretase; assay: Acute oral treatment of rats, brain and CSF Aβ peptides; format: in vivo, rat
Protocol: For in vivo assessment of compound efficacy, brain tissue and cerebrospinal fluid (CSF) were collected, snap frozen in liquid nitrogen, and stored at −80 °C. Brain hemispheres were homogenized in 0.6 % diethylamine (DEA) in 50 mM NaCl containing protease inhibitor cocktail (cOmplete mini, EDTA-free, Roche) using sonication (Branson) at 23 % amplitude for 30 s. Homogenates were spun at 227,000 × g for 25 min at 4 °C. Supernatants were diluted fivefold in PBS-T (0.05 % Tween-20) containing 0.67 % BSA and added to the ELISA plate. For CSF, samples were diluted threefold in the PBS-T/BSA buffer. Detection was performed using the SuperSignal™ ELISA Femto substrate (Thermo Fisher), and luminescence was read on an EnVision plate reader (Perkin Elmer).
(§1) Mice and rats were maintained on 12/12 h light/dark cycle with food available ad libitum. Drug treatment was prepared in a vehicle of 1 % carboxymethylcellulose (CMC):Tween80 (99.5:0.5). Twelve-week-old wild-type male mice (129S6, Taconic Biosciences, Hudson, NY, USA) or rats (Wistar, Charles River Laboratories) were administered compound p.o. without prior fasting and euthanized by CO2 asphyxiation at specified times post-dosing. After extraction of the brain, the olfactory bulb and hindbrain were removed and the cerebral hemispheres separated (mice) or cut in 4 pieces (rats). The cerebellum was removed for bioanalysis of the compound. CSF was collected from the cisterna magna and blood from a cardiac puncture.

[3] = Compound exposure in mice (LC-MS/MS, brain tissue binding); format: in vivo; conditions: mouse
Protocol: as §1
Cerebellums were homogenized in a Mini-BeadBeater (Biospec Products, Inc., Bartlesville, OK, USA). Brain samples, plasma, and CSF were prepared for LC-MS/MS by precipitating proteins with acetonitrile and vacuum filtration in the presence of an internal standard. Standards were prepared in the corresponding matrix. FRM-36143 was resolved by HPLC (Shimadzu) using a reverse-phase C18 Kinetex column (30X2.1 mM; Phenomenex, Torrance, CA, USA). Following separation, the column effluent was introduced into a triple quadrupole mass spectrometer (API 5500, Applied Biosystems), optimized for detection of FRM-36143 and using multiple reaction monitoring with mass transition of 390.3 > 215.2.
The unbound fraction in brain homogenate (fu,b) was determined in triplicate in the Rapid Equilibrium Dialysis device (8000 Da molecular weight cut-off membrane, Thermo Scientific/Pierce Biotechnology, Rockford, IL, USA). Briefly, FRM-36143 stock solution (0.1 mg/mL in acetonitrile) was added to fresh mouse brain homogenate (1:4 dilution with PBS) to achieve a final concentration of 1 μg/mL. Aliquots of the brain homogenate (300 μL) were loaded into the donor side, and 500 μL of PBS into the receiver side of the dialyzer. […]

[4] = rats, 30 mg/kg p.o., 6 h post-dose

COc1nc(C2=NOC[C@H](c3cc4ccccc4o3)N2)ccc1-n1cnc(C)c1 [FRM-36143, (R)-5-(benzofuran-2-yl)-3-(6-methoxy-5-(4-methyl-1H-imidazol-1-yl)pyridin-2-yl)-5,6-dihydro-4H-1,2,4-oxadiazine]
EC50 [1]: 53 nM | Aβ42 reduced to % of the baseline in rat cerebrospinal fluid ([2]; rat CSF): 58% | Brain Aβ37 increase vs vehicle [2, 4]: 2.5 fold | Brain Aβ42 reduction vs vehicle [2, 4]: 30% | CSF Aβ42 reduction vs vehicle [2, 4]: 58% | CSF Aβ37 increase vs vehicle ([2]; rats, 30 mg/kg p.o., 6 h post-dose, vehicle values close to detection limit): 20 fold | concentration at 6 h ([3]; male, 129S6, brain (unbound), 30 mg/kg oral, 6 h): 427 nM | Unbound brain Cmax ([3]; 10 mg/kg oral): 235 nM | Exposure or efficacy at higher dose ([3]; 90 mg/kg vs 30 mg/kg, data not shown): did not achieve significantly higher exposure or efficacy
